In the Biogen ADME set (Fang et al. 2023):
Converted amounts (≈) assume the structure as drawn.

Details: for aqueous solubility: pH 6.8

SMILES | MDR1-MDCK efflux ratio | intrinsic clearance, human liver microsomes [mL/min/kg] | intrinsic clearance, rat liver microsomes [mL/min/kg] | aqueous solubility [µg/mL] | fraction unbound, human plasma | fraction unbound, rat plasma
Cc1cc(C)c(NC(=O)c2ccnc(OC3CCC3)c2)c(C)n1 | 1.43 | ≤ 4.74 | 54.3 | 36.1 (≈ 116 µM) | – | –
O=C(Nc1nncs1)c1cccnc1 | 1.04 | ≤ 4.74 | ≤ 10.7 | 44.3 (≈ 215 µM) | – | –
COc1cccc(NC(=O)CNc2cccc(-c3ccnc(C)n3)c2)c1 | 2.39 | 61.2 | 250 | 50.5 (≈ 145 µM) | – | –
CN(c1ccccc1)S(=O)(=O)c1csc(C(=O)Nc2ccc(C(=O)O)cc2)c1 | – | – | – | 80.3 (≈ 193 µM) | – | –
Cc1cc(C(=O)NC2CCN(c3ncnc4sc(C)c(C)c34)CC2)on1 | – | 43.3 | 368 | 2.49 (≈ 6.7 µM) | – | –
Cc1ccnc(NC(=O)c2ccnc(C)n2)c1 | – | 137 | 569 | – | – | –
CN(Cc1nc2ccccc2n1C)c1ccnc(-c2ccccc2)n1 | – | 105 | 1740 | – | – | –
CC(=O)N1CCC(c2ccc(C(=O)O)cn2)CC1 | – | ≤ 4.74 | ≤ 10.7 | 50.6 (≈ 204 µM) | – | –
C[C@@H](c1ccc(F)cc1)n1nnc2cnc3ccc(-c4ccc5ocnc5c4)cc3c21 | – | – | – | 0.47 (≈ 1.15 µM) | – | –
COc1ccc(-c2nnc3ccc(C(F)(F)F)cn23)cc1OC(C)C | 1.11 | 31.2 | 132 | 22.9 (≈ 65.2 µM) | – | –
Cc1nc(CN(C)C(=O)C2c3ccccc3-c3ccccc32)no1 | 1.09 | 15 | 430 | 32.6 (≈ 102 µM) | – | –
O=c1cc(CN2CCCCc3ccccc32)[nH]c2ccnn12 | 6.78 | 34.2 | 481 | 14.3 (≈ 48.5 µM) | – | –
CC[C@@H]1[C@H](F)C(=O)N[C@@H]1COc1nccc2cc(C(N)=O)c(OC)cc12 | 61.7 | 35 | 218 | 53.6 (≈ 148 µM) | – | –
CNc1nc(C)cc(C(=O)Nc2ccc3[nH]ncc3c2)n1 | 0.659 | 21.3 | – | – | 0.312 | –
COc1ccccc1CNC(=O)C(C)N1CCCN(c2ccccc2C#N)CC1 (stereo not given) | 1.51 | 2190 | 4020 | 46.9 (≈ 119 µM) | – | –
NC(=O)c1cccc(Cn2cnc3c(oc4ccccc43)c2=O)c1 | 13.9 | ≤ 4.74 | 19 | – | – | –
CC1(C)CC(CC(=O)NCCn2ccnn2)CC(C)(C)N1 | 0.186 | ≤ 4.74 | ≤ 10.7 | – | – | –
c1cnn(-c2ccc(-c3ccc(NC4CC4)nn3)cc2)c1 | – | – | – | 0.78 (≈ 2.81 µM) | – | –
O=C(C1CCCN(c2ccc(Cl)nn2)C1)N1CCc2ccccc2C1 (stereo not given) | – | 125 | 1650 | 49.8 (≈ 139 µM) | – | –
Cc1ccn(-c2ccc(NCC3CC3)nn2)n1 | – | 11 | 305 | – | – | –
N#Cc1cccnc1Nc1cnn(Cc2ccccc2)c1 | – | 24.4 | 850 | 3.72 (≈ 13.5 µM) | – | –
c1ccc(-c2cc3c(N4CCC(c5ncc[nH]5)CC4)ncnc3s2)cc1 | 17.8 | 117 | 1550 | 4.15 (≈ 11.5 µM) | – | –
CCc1nc(C)c(Cn2ccnc2-c2cnc(N3CCCC3)nc2)s1 | 4.25 | 31.9 | 548 | 35 (≈ 98.9 µM) | – | –
Cc1nnc(NCC(=O)N2CCc3sccc3C2)c(C#N)c1C | 1.31 | 17.3 | 267 | 35.8 (≈ 109 µM) | – | –
Cc1[nH]nc(CCC(=O)NCCCOC2CCCCC2)c1C | 18.2 | 63.5 | 4360 | – | – | –
C=CC(=O)Nc1cccc(Nc2nc(Nc3ccc(OCCOC)cc3)ncc2F)c1 | 3.94 | 32.1 | 391 | 3.8 (≈ 8.97 µM) | – | –
CCCOc1ccn2c(C(C)=O)cc(-c3ccccc3S(C)(=O)=O)c2c1 | 1.33 | 56.1 | 565 | – | – | –
CCCNC(=O)NS(=O)(=O)c1ccc(Cl)cc1 | – | ≤ 4.74 | 15.2 | – | 0.0933 | 0.0425
CCc1cc(NCc2cccc(OCCOC)c2)ncn1 | 0.827 | 9.28 | 148 | 49.1 (≈ 171 µM) | – | –
CCc1ccc(CC)c(C(=O)CSc2nncs2)c1 | 0.473 | 219 | 1550 | – | – | –
